According to patent US8729133B2, “Method for treating cancer” (Cornell University, priority 2006, dated 2014):

Experiments:
brain metastases = test: Randomized study: whole brain radiotherapy with or without oral L-Arginine hydrochloride in patients with unresectable brain metastases (response, survival); format: in vivo, human
Description: (§1) L-Arginine hydrochloride was orally administered five times a week, Monday to Friday, during the radiation therapy (RT) course at a dose of about 10 grams dissolved/mixed with about 100 ml of water and administered to a patient/host from about 15-55 to about 20-65 minutes before each fraction of RT. Radiation therapy was administered to patients using techniques known to one skilled in the art of treating cancer patients. After administering L-Arginine hydrochloride to a patient as discussed above, change in lactate levels in the tumor cells was monitored by localized ^1H NMR spectroscopy and compared to those who received placebo.
Patients with imagenologically proven brain metastases and histologically proven primary or metastatic cancer were eligible for the study. The eligibility criteria included the following: RPA-RTOG class II, measurable brain lesion/s by contrast-enhanced CT or MRI, absolute granulocyte count >2000/mm^3, hemoglobin […] (patients with lower levels were transfused), normal renal (serum creatinine <1.5 mg/dL and 24-h creatinine clearance >60 mL/min) and hepatic functions (aspartate aminotransferase and alanine aminotransferase <2.5 times the upper limit of normal) and no prior treatment for brain metastases. A neurosurgeon examined all eligible patients and their complimentary studies to determine whether their metastases were resectable. Eligible patients with unresectable metastases were randomized.
The present study was performed in accordance with the ethical standards of the Helsinki Declaration. Within two weeks after the diagnosis of brain metastases, eligible patients were randomly assigned to receive whole brain radiotherapy alone (the control group) or L-Arginine monochlorohydrate (L-Arginine Hydrochloride, L-A-HCl) and whole brain radiotherapy. L-Arginine was orally administered, once a day Monday to Friday, during the radiation therapy (RT) course at a dose of about 10 grams, immediately reconstituted with 100 ml of water and given about 55 to 65 minutes before each fraction of RT.
During RT, all patients were irradiated with ^60Co beams. The whole-brain, of all the individuals enrolled in the study, was treated by two lateral fields to a total dose of 32 Gy in 20 fractions of 1.6 Gy each two times a day with a 6 hours interval between treatments (10 days), followed by a 22.4 Gy boost over the evident lesions with the same fractionation schedule (7 days). The spinal cord dose was limited to 40 Gy.
The baseline evaluation included a complete history and physical examination, brain contrast-enhanced CT scans and/or MRI scans, chest radiographs, blood counts, blood chemistry and electrocardiography. A Mini Mental Status Exam (MMSE) was performed for screening intellectual impairment. During the treatment, patients were to be seen three times a week, then weekly for up to one month after finishing radiotherapy, and then monthly until the patient died. All patients were followed up, by the radiation and medical oncology research physicians, without further treatment.
The following criteria defined radiological response and progression. Complete response was defined as a disappearance of all brain lesions seen on contrast-enhanced CT or MRI scans for at least 1 month. Partial response required at least a 50% decrease in brain lesions for at least 1 month. Stable disease was defined as any brain lesion with shrinkage less than 50% or growth less than 25%. Disease progression was defined as any brain lesion in the brain that enlarged more than 25% or any new brain lesion. For measurable disease, standard bi-perpendicular diameters of the two-dimensional tumor image at maximum dimension were applied.
The following criteria defined symptomatic response and progression. Complete response was defined as disappearance of all neurological-related signs or symptoms seen during a physical exam for at least 1 month, with stable or decreasing steroid dose. […]

[1] = system: lactate levels in brain metastases tumors; test: Tumor lactate determination by localized 1H MR spectroscopy before and after oral L-Arginine; format: in vivo, human
Description: as §1
Single-voxel MR spectroscopic data were obtained by using a double-SE point-resolved spectroscopy (PRESS) sequence with one-pulse water signal suppression mainly from metabolically active fleshy parts (contrast-enhanced areas) of the lesions, while avoiding contamination from scalp fat. Appropriate automatic shimming and water suppression were achieved by using 4-8-Hz line width, 1-kHz spectral width, and the automated software developed by the manufacturer. Spectroscopic data from cubic volumes of 1.5×1.5×1.5-2×2×3 cm were obtained by using the PRESS sequence with 1500/135 ms (TR/TE), 128-256 averages, 1024 data points, and 4000-Hz spectrum width. In most examinations, a voxel size of 2×2×2 cm3 was employed.
The time domain signal intensity was apodized and processed to remove the residual water signal. Post-processing of the spectroscopic data consisted of frequency shift and phase and linear baseline corrections after Fourier transformation. […] Lactate (Lac) peak was calculated at 1.35 ppm (an inverted β-methyl doublet). […] Lactate values were calculated automatically from the area under the peak by using the standard commercial software program provided by the manufacturer.
L-A-HCl was administered (as stated) to 30 patients with unresectable brain metastases. […] Patients were assessed by brain NMR and/or TC (to asses tumor response) and proton magnetic spectroscopy (to determine the metabolic profile of tumors). […]

[2] = 30 patients with unresectable brain metastases vs 30 placebo

SMILES: Cl.N=C(N)NCCC[C@H](N)C(=O)O [L-Arginine, S(+)-2-Amino-5-[(aminoiminomethyl)amino]pentanoic acid monohydrochloride]
- survival compared to placebo (brain metastases; [2]): higher
- tumoral response rates compared to placebo (brain metastases; [2]): higher
- Overall Response: Complete (brain metastases; RT-Arginine n = 22): 6 number of patients
- Overall Response: Partial (brain metastases; RT-Arginine n = 22): 13 number of patients
- Overall Response: Stable Disease (brain metastases; RT-Arginine n = 22): 2 (9%) number of patients (%)
- Radiologic Response: Complete (brain metastases; RT-Arginine n = 22): 6 number of patients
- Radiologic Response: Partial (brain metastases; RT-Arginine n = 22): 13 number of patients
- Radiologic Response: Progressive Disease (brain metastases; RT-Arginine n = 22): 0 number of patients
- Radiologic Response: Stable Disease (brain metastases; RT-Arginine n = 22): 2 (9%) number of patients (%)
- Symptomatic Response: Complete (brain metastases; RT-Arginine n = 22): 20 number of patients
- Symptomatic Response: Partial (brain metastases; RT-Arginine n = 22): 1 number of patients
- Symptomatic Response: Progressive Disease (brain metastases; RT-Arginine n = 22): 0 (0%) number of patients (%)
- Symptomatic Response: Stable Disease (brain metastases; RT-Arginine n = 22): 1 (5%) number of patients (%)
- Overall Response: Total responses (brain metastases; RT-Arginine n = 22, ECOG response guidelines): 18 (81%) number of patients (%)
- Symptomatic Response: Total responses (brain metastases; RT-Arginine n = 22, about 10 grams orally before each RT fraction): 21 (95%) number of patients (%)
- Radiologic Response: Total responses (brain metastases; RT-Arginine n = 22, contrast-enhanced CT or MRI): 18 (81%) number of patients (%)
- Overall Response: Progressive Disease (brain metastases; RT-Arginine n = 22, not assessed counted as progressive): 1 (5%) number of patients (%)
- Radiologic Response: Not assessed (brain metastases; RT-Arginine n = 22, patients without follow-up scan): 1 (5%) number of patients (%)
- median survival time (brain metastases; patients with brain metastases, about 10 grams L-Arginine orally, Kaplan-Meier (FIG. 1), placebo 2 months): 8 months
- metabolic pattern of the tumors by spectroscopy ([1]; about 10 grams orally, in about 60 minutes): favorably modified
- drop of lactate levels in tumors ([1]; brain metastases, about 60 minutes after about 10 grams orally, NMR (FIG. 2), placebo about 10%): about 50%
- lactate peak in tumor NMR spectrum after vs before administration ([1]; brain metastasis, about 60 minutes after about 10 grams orally): decrease
